Experimental data reported in patent US11439980B2, “Contaminant-activated photocatalysis” (UNIVERSITY OF FLORIDA RESEARCH FOUNDATION, INC., priority 2016, dated 2022).

Experiments:
[1] = Photocatalytic degradation of Procion Red on coated tiles under visible light; conditions: PR on anatase coating, N=4
Protocol: (§1) Photocatalytic coating formulation was prepared by adding 10 mg of anatase (A7) to 10 mL of dilute NaOH (pH=9.5) in a 20 mL scintillation vial wrapped with aluminum foil. The suspension was sonicated (Misonix Sonicator 3000, Farmingdale, NY) at the highest power level providing 180-200 W for 30 minutes total (10 min on/2 min off×3). Similarly, rutile (R22) and silica (S15) coating formulations were prepared without exposing to visible light. In case of anatase+PHF, the anatase suspension was sonicated for 30 minutes followed by addition of 1 mL of a PHF solution (1000 or 100 mg/L). The nanocomposites suspension was mixed with a magnetic stirrer for 10 minutes in dark.
(§2) Ceramic tiles were utilized to evaluate the photocatalytic degradation of organic dye and inactivation of microbes. […]
(§3) The photocatalytic experiments were carried out under fluorescent lamps (General Electric model T8 Ultramax F28T8-SPX41) at visible light irradiance of 1.8-2.0 W/m^2. […] The visible light and UVA irradiances were measured with a PMA 2140 Global detector or a PMA 2110 UVA detector attached to a PMA2110 meter (Solar Light Co., Glenside, Pa.).
(§4) The temporal changes in dye concentration were determined by measuring the absorbance after predetermined times of exposure to visible light. The inactivation of S. aureus was evaluated by determining the viable counts after exposure to visible light. […]

[2] = Photocatalytic degradation of Mordant Orange on coated tiles under visible light; conditions: MO on anatase coating, N=4
Protocol: as §1, §2, §3, §4

With Procion Red the “overall pseudo first order degradation rate” value [1] was 0.023 h⁻¹.
With Mordant Orange the “overall pseudo first order degradation rate” value [2] was 0.01 h⁻¹.
